Structures are written as SMILES. Counter-ions that a name gives are not always drawn.

The target in the assay is T1, human CCR5 (Homo sapiens, UniProt P51681).
T1 construct: expressed in transfected cells; whole cells in the well
In words: CCR5 binding assay: inhibition of [125I]-RANTES binding to CHO/CCR5 cells. The note with it: 1.0 μM test compound, 100 pM [125I]-RANTES, room temperature 40 minutes; for inhibition at 1 µM: read-out: Inhibition Rate (%) at 1.0 μM. The method, then: (1) Cloning of Human CCR5 Chemokine Receptor
Cloning of CCR5 gene was carried out by PCR (polymerase chain reaction) from human spleen cDNA. With using 0.5 ng of spleen cDNA (Toyobo, QUICK-Clone cDNA) as template, PCR was performed in DNA Thermal Cycler 480 (Perkin-Elmer) (reaction conditions: 30 cycles of 95° C. for 1 minute, 60° C. for 1 minute, and 75° C. for 5 minutes) by adding primer set, 5′-[…]-3′ (25 pmol) and 5′-[…]-3′ (25 pmol), which were designed referring to nucleotide sequence of CCR5 gene reported by Samson et al. (Biochemistry, 35(11), 3362-3367 (1996)) and by using TaKaRa EX Taq (Takara Shuzo). The resultant PCR product was subjected to agarose gel electrophoresis to collect about 1.0 kb DNA fragment, which was subjected to Original TA Cloning Kit (Funakoshi) to carry out cloning of CCR5 gene.
(2) Preparation of Plasmid for Expression of Human […]
The plasmid obtained in the above (1) was digested with restriction enzymes XbaI (Takara Shuzo) and BamHI (Takara Shuzo) and subjected to agarose gel electrophoresis to collect about 1.0 kb DNA fragment. The DNA fragment was mixed with plasmid pcDNA3.1 (Funakoshi) for expression in animal cells, said plasmid being digested with XbaI and BamHI, and they were ligated with DNA Ligation Kit Ver.2 (Takara Shuzo). The resulting plasmid was subjected to transformation of competent cell of E. coli JM109 (Takara Shuzo) to obtain plasmid pCKR5.
(3) Introduction of Plasmid for Expression of Human CCR5 into CHO-K1 Cell and Expression of said Plasmid in CHO-KY Cell
CHO-K1 cells were grown in 750 ml of tissue culture flask (Becton Dickinson) using Ham's F12 medium (Nihon Pharmaceutical) containing 10% fetal calf serum (Life Tech Oriental) and took off with 0.5 g/L trypsin-0.2 g/L EDTA (Life Tech Oriental). The cells were washed with PBS (Life Tech Oriental), centrifuged (1000 rpm, 5 minutes), and suspended in PBS. With using Gene Pulser (Bio-Rad Laboratories), DNA was introduced into the cells under the conditions shown below. That is, to the cuvette of 0.4 cm gap were added 8×10^6 cells and 10 μg of plasmid pCKR5 for expression of human CCR5, and electroporation was carried out under 0.25 kV of voltage and […] of capacitance. The cells were transferred into Ham's F12 medium (Nihon Pharmaceutical) containing 10% fetal calf serum, and cultivated for 24 hours. The cells were again took off and centrifuged, and suspended in Ham's F12 medium (Nihon Pharmaceutical) containing 10% fetal calf serum and 500 μg/ml of geneticin (Life Tech Oriental). The suspension was diluted to give 10^4 cells/ml of the suspension, which was inoculated on 96 well plate (Becton Dickinson) to give geneticin resistant cells. The resulting geneticin resistant cells were cultivated in 96 well plate (Becton Dickinson), and cells expressing CCR5 were selected from the geneticin resistant cells. That is, in assay buffer (Ham's F12 medium containing 0.5% BSA and 20 mM HEPES (Wako Pure Chemical, pH7.2) to which was added 200 pM of [^125I]-RANTES (Amersham) as ligand, binding reaction was carried out at room temperature for 40 minutes, and the buffer was washed with cooled PBS. To the buffer was added 50 μl/well of 1M NaOH, and the mixture was stirred. Radioactivity was determined with γ-counter to select CHO/CCR5 cells which specifically bind to the ligand.
(4) Evaluation of Test Compounds Based on CCR5 Antagonistic Activity
The CHO/CCR5 were inoculated on 96 well microplate (5×10^4 cells/well) and cultivated for 24 hours. The medium was removed by means of suction, and to each well was added assay buffer containing Test Compound (191) and then 100 pM of [^125I]-RANTES (Amersham) as ligand. Binding assay was carried out at room temperature for 40 minutes, and assay buffer was removed by means of suction. Each well was washed twice with cooled PBS, and 200 μl of Microscint-20 (Packard Instrument, Inc.) was added to each well.

T1 sequence (P51681 whole entry): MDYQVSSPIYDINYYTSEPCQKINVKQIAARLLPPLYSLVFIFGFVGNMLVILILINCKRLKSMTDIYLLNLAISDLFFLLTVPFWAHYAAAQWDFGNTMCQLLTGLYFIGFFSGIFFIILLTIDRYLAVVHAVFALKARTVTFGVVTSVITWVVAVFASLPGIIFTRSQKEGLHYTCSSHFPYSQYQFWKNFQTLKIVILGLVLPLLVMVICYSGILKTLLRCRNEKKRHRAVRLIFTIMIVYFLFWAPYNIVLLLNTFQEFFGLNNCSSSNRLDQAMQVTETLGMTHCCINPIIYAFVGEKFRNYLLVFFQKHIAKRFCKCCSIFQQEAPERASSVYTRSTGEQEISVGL

The term inhibition denotes how much of the control response was suppressed. As to `CC(=O)N1CCC(C(=O)N(CCCN2CCC(S(=O)(=O)c3ccc(F)cc3)CC2)c2ccc(Cl)c(Cl)c2)CC1` [Example 189, 1-Acetyl-N-(3,4-dichlorophenyl)-N-{3-[4-(4-fluorophenylsulfonyl)-1-piperidinyl]propyl}-4-piperidinecarboxamide], the inhibition at 1 µM turned out to be 100%.

For the molecule `CS(=O)(=O)N1CCC(C(=O)N(CCCN2CCC(Cc3ccc(C(N)=O)cc3)CC2)c2ccc(Cl)c(Cl)c2)CC1` [Example 362, N-(3-{4-[4-(Aminocarbonyl)benzyl]-1-piperidinyl}propyl)-N-(3,4-dichlorophenyl)-1-(methylsulfonyl)-4-piperidinecarboxamide], the inhibition at 1 µM was 95%.

Take `CS(=O)(=O)N1CCC(C(=O)N(CCCN2CCC(Cc3ccc(-n4cnnn4)cc3)CC2)c2ccc(Cl)c(Cl)c2)CC1` [Example 309, N-(3,4-Dichlorophenyl)-1-(methylsulfonyl)-N-(3-{4-[4-(1H-tetrazol-1-yl)benzyl]-1-piperidinyl}propyl)-4-piperidinecarboxamide]: the inhibition at 1 µM was determined as 92%.

With `COc1ccc(CC2CCN(CCCN(C(=O)C3CCN(S(C)(=O)=O)CC3)c3ccc(Cl)c(Cl)c3)CC2)cc1` [Example 250, N-(3,4-Dichlorophenyl)-N-{3-[4-(4-methoxybenzyl)-1-piperidinyl]propyl}-1-(methylsulfonyl)-4-piperidinecarboxamide], the inhibition at 1 µM turned out to be 96%.

For the molecule `CC(=O)N1CCC(C(=O)N(CCCN2CCC(Sc3cnccn3)CC2)c2cccc(Cl)c2)CC1` [Example 79, 1-Acetyl-N-(3-chlorophenyl)-N-[3-[4-(2-pyrazinylthio)-1-piperidinyl]propyl]-4-piperidinecarboxamide Trifluoroacetate], the inhibition at 1 µM amounted to 90%.

Take `CC(=O)N1CCC(C(=O)N(CCCN2CCC(Cc3ccc(NS(C)(=O)=O)cc3)CC2)c2ccc(Cl)c(Cl)c2)CC1` [Example 304, 1-Acetyl-N-(3,4-dichlorophenyl)-N-[3-(4-{4-[(methylsulfonyl)amino]benzyl}-1-piperidinyl)propyl]-4-piperidinecarboxamide]: the inhibition at 1 µM came out at 99%.

As for `NC(=O)C(=O)N1CCC(C(=O)N(CCCN2CCC(Cc3ccc(F)cc3)CC2)c2ccc(Cl)c(Cl)c2)CC1` [Example 150, N-(3,4-Dichlorophenyl)-N-{3-[4-(4-fluorobenzyl)-1-piperidinyl]propyl}-1-oxamoyl-4-piperidinecarboxamide Trifluoroacetate], the inhibition at 1 µM came to 98%.

On to `CC(=O)N1CCC(C(=O)N(CCCN2CCC(Cc3ccccc3)CC2)c2ccccc2)CC1` [Example 3, 1-Acetyl-N-[3-(4-benzyl-1-piperidinyl)propyl]-N-phenyl-4-piperidinecarboxamide], for which the inhibition at 1 µM came to 98%.

As for `CS(=O)(=O)N1CCC(C(=O)N(CCCN2CCC(Cn3cnc4ccccc43)CC2)c2ccc(Cl)c(Cl)c2)CC1` [Example 261, N-{3-[4-(1H-Benzimidazol-1-ylmethyl)-1-piperidinyl]propyl}-N-(3,4-dichlorophenyl)-1-methylsulfonyl-4-piperidinecarboxamide], the inhibition at 1 µM was found to be 98%.

Turning to `Cc1cc(NS(=O)(=O)c2ccc(CC3CCN(CCCN(C(=O)C4CCN(S(C)(=O)=O)CC4)c4ccc(Cl)c(Cl)c4)CC3)cc2)no1` [Example 372, N-(3,4-Dichlorophenyl)-N-{3-[4-(4-{[(5-methyl-3-isoxazolyl)amino]sulfonyl}benzyl)-1-piperidinyl]propyl}-1-(methylsulfonyl)-4-piperidinecarboxamide], the inhibition at 1 µM amounted to 97%.

Regarding `CC(=O)N1CCC(C(=O)N(CCCN2CCN(Cc3c(C)noc3C)CC2)c2cccc(Cl)c2)CC1.O=C(O)C(F)(F)F.O=C(O)C(F)(F)F` [Example 272, 1-Acetyl-N-(3-chlorophenyl)-N-(3-{4-[(3,5-dimethylisoxazol-4-yl)methyl]-1-piperazinyl}propyl)-4-piperidinecarboxamide 2 Trifluoroacetate], the “Inhibition Rate (%) at 1.0 μM” value was 96%.

`CN(C)C(=O)N1CCC(C(=O)N(CCCN2CCC(Cc3ccccc3)CC2)c2ccc(Cl)c(Cl)c2)CC1` [Example 27, N-[3-(4-Benzyl-1-piperidinyl)propyl]-N-(3,4-dichlorophenyl)-1-(N,N-dimethylcarbamoyl)-4-piperidinecarboxamide]: the inhibition at 1 µM came to 99%.

Take `CC(=O)N1CCC(C(=O)N(CCCN2CCC(Cc3ccccc3)CC2)Cc2ccc(Cl)cc2)CC1` [Example 40, 1-Acetyl-N-[3-(4-benzyl-1-piperidinyl)propyl]-N-(4-chlorobenzyl)-4-piperidinecarboxamide Trifluoroacetate]: the inhibition at 1 µM turned out to be 98%.

Regarding `CS(=O)(=O)Nc1ccc(CC2CCN(CCCN(C(=O)C3CCN(S(C)(=O)=O)CC3)c3ccc(Cl)c(Cl)c3)CC2)cc1` [Example 313-2, N-(3,4-Dichlorophenyl)-1-(methylsulfonyl)-N-[3-(4-{4-[(methylsulfonyl)amino]benzyl}-1-piperidinyl)propyl]-4-piperidinecarboxamide], the inhibition at 1 µM came out at 97%.

As to `Cc1ccc(N(CCCN2CCC(Cc3ccc(C(N)=O)cc3)CC2)C(=O)C2CCN(S(C)(=O)=O)CC2)cc1Cl` [Example 470, N-(3-{4-[4-(Aminocarbonyl)benzyl]-1-piperidinyl}propyl)-N-(3-chloro-4-methylphenyl)-1-(methylsulfonyl)-4-piperidinecarboxamide], the inhibition at 1 µM is 99%.

Take `CCS(=O)(=O)c1ccc(CC2CCN(CCCN(C(=O)C3CCN(S(C)(=O)=O)CC3)c3cccc(Cl)c3)CC2)cc1` [Example 413, N-(3-Chlorophenyl)-N-(3-{4-[4-(ethylsulfonyl)benzyl]-1-piperidinyl}propyl)-1-(methylsulfonyl)-4-piperidinecarboxamide Hydrochloride]: the inhibition at 1 µM came to 99%.

For the molecule `CC(C)S(=O)(=O)N1CCC(C(=O)N(CCCN2CCC(Cc3ccc(F)cc3)CC2)c2ccc(Cl)c(Cl)c2)CC1` [Example 92, N-(3,4-Dichlorophenyl)-N-{3-[4-(4-fluorobenzyl)-1-piperidinyl]propyl}-1-(isopropylsulfonyl)-4-piperidinecarboxamide Trifluoroacetate], the inhibition at 1 µM turned out to be 92%.

As to `CC(=O)N1CCC(C(=O)N(CCCN2CCC(On3nnc4ccccc43)CC2)c2cccc(Cl)c2)CC1` [Example 88, 1-Acetyl-N-(3-chlorophenyl)-N-[3-[4-(1H-benzotriazol-1-yloxy)-1-piperidinyl]propyl]-4-piperidinecarboxamide Trifluoroacetate], the inhibition at 1 µM turned out to be 99%.

On to `CC(=O)N1CCC(C(=O)N(CCCN2CCC(Cc3ccc(F)cc3)CC2)c2cccc(Cl)c2)CC1` [Example 18, 1-Acetyl-N-(3-chlorophenyl)-N-{3-[4-(4-fluorobenzyl)-1-piperidinyl]propyl}-4-piperidinecarboxamide], for which the inhibition at 1 µM was 87%.

Regarding `CC(=O)N1CCC(C(=O)N(CCCN2CCC(Cc3ccc(C(N)=O)cc3)CC2)c2ccc(C)c(Cl)c2)CC1` [Example 376, 1-Acetyl-N-(3-{4-[4-(aminocarbonyl)benzyl]-1-piperidinyl}propyl)-N-(3-chloro-4-methylphenyl)-4-piperidinecarboxamide], the inhibition at 1 µM came out at 97%.
